In paper PMC11864979, “First-in-class ultralong-target-residence-time p38α inhibitors as a mitosis-targeted therapy for colorectal cancer” (Nature Cancer, 2025):
Like-named read-outs stand apart in the source and are kept apart here.

How the values were obtained:
Test in all cases: selectivity profiling in a panel of 340 wild-type kinases (Reaction Biology Europe)
Type in all cases: binding
340 wild-type kinases [1] = target: T1, 340 wild-type kinases (Homo sapiens, UniProt P22607)
T1 construct: purchased Reaction Biology Europe

340 wild-type kinases [2] = target: T2, 340 wild-type kinases (Homo sapiens, UniProt P36894)
T2 construct: purchased Reaction Biology Europe

340 wild-type kinases [3] = target: T3, 340 wild-type kinases (Homo sapiens, UniProt P37023)
T3 construct: purchased Reaction Biology Europe

340 wild-type kinases [4] = target: T4, 340 wild-type kinases (Homo sapiens, UniProt P42681)
T4 construct: purchased Reaction Biology Europe
T4 sequence (P42681 1-527): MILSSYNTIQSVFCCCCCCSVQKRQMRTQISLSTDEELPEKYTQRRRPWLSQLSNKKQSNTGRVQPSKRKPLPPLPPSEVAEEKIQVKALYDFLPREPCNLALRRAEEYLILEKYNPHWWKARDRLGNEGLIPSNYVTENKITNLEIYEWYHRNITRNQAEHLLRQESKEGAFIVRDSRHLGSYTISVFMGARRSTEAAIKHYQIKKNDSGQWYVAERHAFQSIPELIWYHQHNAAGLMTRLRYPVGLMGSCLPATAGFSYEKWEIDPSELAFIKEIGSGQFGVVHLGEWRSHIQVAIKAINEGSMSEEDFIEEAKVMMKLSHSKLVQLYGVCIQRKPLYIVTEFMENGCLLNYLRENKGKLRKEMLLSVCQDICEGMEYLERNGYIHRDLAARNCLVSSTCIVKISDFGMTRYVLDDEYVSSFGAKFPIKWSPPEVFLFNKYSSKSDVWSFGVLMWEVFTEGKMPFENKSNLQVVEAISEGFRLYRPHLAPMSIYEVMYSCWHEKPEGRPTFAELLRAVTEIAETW

340 wild-type kinases [5] = target: T5, 340 wild-type kinases (Homo sapiens, UniProt P50750)
T5 construct: purchased Reaction Biology Europe

340 wild-type kinases [6] = target: T6, 340 wild-type kinases (Homo sapiens, UniProt P51955)
T6 construct: purchased Reaction Biology Europe
T6 sequence (P51955 1-445): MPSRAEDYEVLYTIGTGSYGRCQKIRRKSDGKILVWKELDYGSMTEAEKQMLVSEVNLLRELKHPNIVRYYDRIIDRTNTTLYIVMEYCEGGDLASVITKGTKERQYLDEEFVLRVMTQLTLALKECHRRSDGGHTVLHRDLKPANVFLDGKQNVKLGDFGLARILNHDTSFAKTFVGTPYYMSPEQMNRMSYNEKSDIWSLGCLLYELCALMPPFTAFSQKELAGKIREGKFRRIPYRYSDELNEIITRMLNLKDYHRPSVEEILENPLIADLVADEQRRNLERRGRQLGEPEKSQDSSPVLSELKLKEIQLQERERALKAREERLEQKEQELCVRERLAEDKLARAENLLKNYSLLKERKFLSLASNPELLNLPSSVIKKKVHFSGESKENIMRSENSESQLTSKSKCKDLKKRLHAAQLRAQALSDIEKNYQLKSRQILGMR

340 wild-type kinases [7] = target: T7, 340 wild-type kinases (Homo sapiens, UniProt Q8NE63)
T7 construct: purchased Reaction Biology Europe
T7 sequence (Q8NE63 1-616): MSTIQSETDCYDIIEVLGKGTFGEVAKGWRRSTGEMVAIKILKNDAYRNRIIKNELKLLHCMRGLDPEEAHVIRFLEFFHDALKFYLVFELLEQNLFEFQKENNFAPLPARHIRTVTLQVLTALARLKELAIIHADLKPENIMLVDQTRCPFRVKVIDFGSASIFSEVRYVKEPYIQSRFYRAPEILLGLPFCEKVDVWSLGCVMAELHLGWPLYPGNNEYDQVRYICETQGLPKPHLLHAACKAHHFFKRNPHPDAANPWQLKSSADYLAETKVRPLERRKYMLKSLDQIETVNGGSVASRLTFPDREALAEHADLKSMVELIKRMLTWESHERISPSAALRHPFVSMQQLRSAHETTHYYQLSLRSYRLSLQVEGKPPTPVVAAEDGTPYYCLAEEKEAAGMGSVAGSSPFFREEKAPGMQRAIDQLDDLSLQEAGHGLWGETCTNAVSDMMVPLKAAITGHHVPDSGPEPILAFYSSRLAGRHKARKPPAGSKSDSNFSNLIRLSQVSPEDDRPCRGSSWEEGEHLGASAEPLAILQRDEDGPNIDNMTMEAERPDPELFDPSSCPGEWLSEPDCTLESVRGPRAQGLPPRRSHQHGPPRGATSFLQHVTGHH

340 wild-type kinases [8] = conditions: for residual activity: RAF1 YDYD

T2 sequence (P36894 24-532): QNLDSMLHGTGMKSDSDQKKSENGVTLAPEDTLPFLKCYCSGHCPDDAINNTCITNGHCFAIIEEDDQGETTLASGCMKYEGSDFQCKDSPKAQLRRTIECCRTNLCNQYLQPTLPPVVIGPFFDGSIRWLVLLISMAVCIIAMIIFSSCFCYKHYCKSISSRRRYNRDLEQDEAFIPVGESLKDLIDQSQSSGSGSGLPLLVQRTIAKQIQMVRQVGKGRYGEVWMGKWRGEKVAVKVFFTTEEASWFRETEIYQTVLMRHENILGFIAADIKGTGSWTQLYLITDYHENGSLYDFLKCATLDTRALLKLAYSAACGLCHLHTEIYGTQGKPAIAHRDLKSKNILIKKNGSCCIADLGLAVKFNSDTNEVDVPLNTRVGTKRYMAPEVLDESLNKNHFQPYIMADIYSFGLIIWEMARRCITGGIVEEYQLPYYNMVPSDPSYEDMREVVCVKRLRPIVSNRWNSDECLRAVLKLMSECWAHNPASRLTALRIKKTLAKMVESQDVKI
T1 sequence (P22607 23-806): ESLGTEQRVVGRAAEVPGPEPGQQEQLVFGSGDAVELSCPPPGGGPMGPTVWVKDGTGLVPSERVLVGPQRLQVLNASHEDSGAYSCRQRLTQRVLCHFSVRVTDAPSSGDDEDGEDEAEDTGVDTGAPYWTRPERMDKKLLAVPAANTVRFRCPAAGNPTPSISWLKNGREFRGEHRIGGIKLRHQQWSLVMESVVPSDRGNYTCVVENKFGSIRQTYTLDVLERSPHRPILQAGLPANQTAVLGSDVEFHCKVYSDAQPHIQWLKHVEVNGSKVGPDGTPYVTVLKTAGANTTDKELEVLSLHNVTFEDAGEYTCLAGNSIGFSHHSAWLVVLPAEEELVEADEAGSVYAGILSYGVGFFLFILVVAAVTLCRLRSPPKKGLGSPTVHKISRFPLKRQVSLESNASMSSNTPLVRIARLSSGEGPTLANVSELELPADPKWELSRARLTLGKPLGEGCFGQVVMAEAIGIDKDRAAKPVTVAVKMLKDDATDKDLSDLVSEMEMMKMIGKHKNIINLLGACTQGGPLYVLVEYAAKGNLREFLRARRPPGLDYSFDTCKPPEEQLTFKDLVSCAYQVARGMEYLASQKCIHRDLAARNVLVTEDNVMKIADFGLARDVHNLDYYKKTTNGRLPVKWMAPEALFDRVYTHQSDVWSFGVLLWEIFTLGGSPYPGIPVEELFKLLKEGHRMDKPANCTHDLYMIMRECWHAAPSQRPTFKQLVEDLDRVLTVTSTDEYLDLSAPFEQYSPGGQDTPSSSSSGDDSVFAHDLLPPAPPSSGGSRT
T5 sequence (P50750 whole entry): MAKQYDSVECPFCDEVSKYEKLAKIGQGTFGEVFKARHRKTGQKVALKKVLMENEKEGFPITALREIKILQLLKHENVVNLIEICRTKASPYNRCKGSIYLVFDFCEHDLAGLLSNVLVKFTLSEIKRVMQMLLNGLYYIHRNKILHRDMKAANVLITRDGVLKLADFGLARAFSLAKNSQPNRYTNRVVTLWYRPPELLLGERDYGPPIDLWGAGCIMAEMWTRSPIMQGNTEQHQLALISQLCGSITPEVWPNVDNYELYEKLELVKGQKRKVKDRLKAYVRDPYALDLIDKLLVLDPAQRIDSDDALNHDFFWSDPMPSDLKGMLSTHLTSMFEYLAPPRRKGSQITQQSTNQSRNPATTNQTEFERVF
T3 sequence (P37023 22-503): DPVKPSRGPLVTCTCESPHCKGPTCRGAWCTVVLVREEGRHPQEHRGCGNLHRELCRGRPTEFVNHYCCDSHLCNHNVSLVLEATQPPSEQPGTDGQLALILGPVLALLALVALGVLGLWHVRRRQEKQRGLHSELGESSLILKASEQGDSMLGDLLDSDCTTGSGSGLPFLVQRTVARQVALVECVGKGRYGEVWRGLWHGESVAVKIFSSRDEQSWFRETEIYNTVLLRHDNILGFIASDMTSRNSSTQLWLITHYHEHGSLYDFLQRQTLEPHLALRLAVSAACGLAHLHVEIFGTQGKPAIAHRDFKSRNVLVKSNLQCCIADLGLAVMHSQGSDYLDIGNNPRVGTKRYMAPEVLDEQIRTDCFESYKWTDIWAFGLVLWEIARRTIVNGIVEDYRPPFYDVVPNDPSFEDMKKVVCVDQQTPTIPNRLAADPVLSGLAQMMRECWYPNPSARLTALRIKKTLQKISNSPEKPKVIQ

CNC(=O)c1ccc2c(c1)C(=O)c1ccc(Nc3ccc(F)c(NC(=O)C4CC4)c3)cc1CC2 [Compound 2015]
remaining activity at 0.2 µM (340 wild-type kinases [1]; 0.2 µM 2015, read-out: FGFR3 residual activity): 109% | remaining activity at 1 µM (340 wild-type kinases [1]; 1 µM 2015, read-out: FGFR3 residual activity): 97.1% | remaining activity at 0.2 µM (340 wild-type kinases [1]; FGFR3, 0.2 µM, read-out: residual activity): 109% | remaining activity at 1 µM (340 wild-type kinases [1]; FGFR3, 1 µM, read-out: residual activity): 97.1% | remaining activity at 0.2 µM (340 wild-type kinases [2]; 0.2 µM 2015, read-out: BMPR1A residual activity): 95.6% | remaining activity at 1 µM (340 wild-type kinases [2]; 1 µM 2015, read-out: BMPR1A residual activity): 98.5% | remaining activity at 0.2 µM (340 wild-type kinases [2]; BMPR1A, 0.2 µM, read-out: residual activity): 95.6% | remaining activity at 1 µM (340 wild-type kinases [2]; BMPR1A, 1 µM, read-out: residual activity): 98.5% | remaining activity at 0.2 µM (340 wild-type kinases [3]; 0.2 µM 2015, read-out: ACVRL1 residual activity): 100% | remaining activity at 1 µM (340 wild-type kinases [3]; 1 µM 2015, read-out: ACVRL1 residual activity): 102% | remaining activity at 0.2 µM (340 wild-type kinases [3]; ACVRL1, 0.2 µM, read-out: residual activity): 100% | remaining activity at 1 µM (340 wild-type kinases [3]; ACVRL1, 1 µM, read-out: residual activity): 102% | remaining activity at 0.2 µM (340 wild-type kinases [4]; 0.2 µM 2015, read-out: TXK residual activity): 94.2% | remaining activity at 1 µM (340 wild-type kinases [4]; 1 µM 2015, read-out: TXK residual activity): 90% | remaining activity at 0.2 µM (340 wild-type kinases [4]; TXK, 0.2 µM, read-out: residual activity): 94.2% | remaining activity at 1 µM (340 wild-type kinases [4]; TXK, 1 µM, read-out: residual activity): 90% | remaining activity at 0.2 µM (340 wild-type kinases [5]; 0.2 µM 2015, read-out: CDK9/CycK residual activity): 94.2% | remaining activity at 0.2 µM (340 wild-type kinases [5]; 0.2 µM 2015, read-out: CDK9/CycT1 residual activity): 107% | remaining activity at 1 µM (340 wild-type kinases [5]; 1 µM 2015, read-out: CDK9/CycK residual activity): 95.1% | remaining activity at 1 µM (340 wild-type kinases [5]; 1 µM 2015, read-out: CDK9/CycT1 residual activity): 94% | remaining activity at 0.2 µM (340 wild-type kinases [5]; CDK9/CycK, 0.2 µM, read-out: residual activity): 94.2% | remaining activity at 1 µM (340 wild-type kinases [5]; CDK9/CycK, 1 µM, read-out: residual activity): 95.2% | remaining activity at 0.2 µM (340 wild-type kinases [5]; CDK9/CycT1, 0.2 µM, read-out: residual activity): 107% | remaining activity at 1 µM (340 wild-type kinases [5]; CDK9/CycT1, 1 µM, read-out: residual activity): 94% | remaining activity at 0.2 µM (340 wild-type kinases [6]; 0.2 µM 2015, read-out: NEK2 residual activity): 104% | remaining activity at 1 µM (340 wild-type kinases [6]; 1 µM 2015, read-out: NEK2 residual activity): 95% | remaining activity at 0.2 µM (340 wild-type kinases [6]; NEK2, 0.2 µM, read-out: residual activity): 104% | remaining activity at 1 µM (340 wild-type kinases [6]; NEK2, 1 µM, read-out: residual activity): 95% | remaining activity at 0.2 µM (340 wild-type kinases [7]; 0.2 µM 2015, read-out: HIPK4 residual activity): 96.4% | remaining activity at 1 µM (340 wild-type kinases [7]; 1 µM 2015, read-out: HIPK4 residual activity): 95.4% | remaining activity at 0.2 µM (340 wild-type kinases [7]; HIPK4, 0.2 µM, read-out: residual activity): 96.4% | remaining activity at 1 µM (340 wild-type kinases [7]; HIPK4, 1 µM, read-out: residual activity): 95.5% | PKCbeta2 residual activity (340 wild-type kinases [8]; 0.2 µM 2015): 102.668% | PKCbeta2 residual activity (340 wild-type kinases [8]; 1 µM 2015): 108.52% | residual activity (340 wild-type kinases [8]; 0.2 µM): 80.31% | residual activity (340 wild-type kinases [8]; 1 µM): 88.78% | effect on p38α and p38β (in words) (340 wild-type kinases [8]; panel of 340 kinases, 1 µM and 0.2 µM): specifically inhibited
